Experimental data: US10238631B2, “Sesquiterpene derivatives and their use in inflammation or cancer treatment” (Academia Sinica, priority 2014, dated 2019)
Where two headings read alike, the source gives them in different places. One block for each compound: values may come before it.

Experiments:
[1] = tested on: MDA-MB-231 cells
Description: Briefly, cells (5×10^3 cells/well) were seeded in 96-well plates and treated with BSO at concentrations 100 μM, 45 μM, 18 μM, 7.2 μM, 2.8 μM, 1.15 μM, 461 nM, 184 nM, 74 nM and 29 nM, and sulfasalazine at concentrations 62.75 μM, 25.10 μM, 10 μM, 4 μM, 1.6 μM, 642 nM, 257 nM, 102 nM, 41 nM and 16.4 nM for 30 h, and then 12 μM DET or 3 μM DETD-35 were added in the cultural medium to treat the cells for another 24 h. Cell proliferation was measured by MIT assay.

[2] = tested on: A498 kidney cancer cell line; test: MTT cell viability assay, A498; assay type: cell-based; settings: Homo sapiens, 24 h
Description: (§1) Normal or cancer cells (2×10^3 to 1×10^4 cells/well) were seeded in 96-well plate for overnight and treated with different compounds for 24 h to 72 h. Cells growth were determined by MTT-based colorimetric assays according to. Viability of the test cells treated with vehicle (0.5% DMSO) only was defined as 100% viable. Survival of cells after treatment with DETDs was calculated using the following formula: viable cell number (%)=OD570 (treated cell culture)/OD570 (vehicle control)×100.
(§2) Based on toxicity results of DET and DETDs on different breast cancer and melanoma cell lines, we selected DETD-6, -32, -35 and -39, under the consideration of structure activity relationship for evaluating their suppression effect against other cancer types of cell line with indicated tumor origin in Table 5. […] The cells were treated with compounds for 24 h and then subjected to MTT assays.

[3] = tested on: B16-F10 (NRAS mutation); test: MTT cell viability assay, B16-F10 melanoma; assay type: cell-based; settings: Mus musculus, B16-F10, 24 h
How it was run: (§3)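 MTT readout at OD570, normalised to 0.5% DMSO vehicle-treated cells set as 100% viable. Compound exposure lasted 24 h to 72 h after overnight seeding of 2×10^3 to 1×10^4 cells/well.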

[4] = tested on: MCF-7 (ER+, Her2−) human breast cancer cells; test: MTT cell viability assay, MCF-7 cells; assay type: cell-based
How it was run: (§4)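 MTT readout at OD570; % viable = treated/vehicle ×100, vehicle (0.5% DMSO) set as 100%. Seeding 2×10^3–1×10^4 cells/well overnight, compound exposure 24 h to 72 h.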

[5] = tested on: Melanocyte (Normal cells); test: MTT cell viability assay, normal melanocytes; assay type: cell-based, human; settings: Homo sapiens, Melanocyte, 24 h
How it was run: as §3

[6] = tested on: LPS-induced nitric oxide (NO) production in RAW 264.7 cells; test: Nitric oxide production in LPS-stimulated macrophages (Griess); assay type: cell-based, mouse; settings: Mus musculus; LPS-stimulated RAW264.7, nitrite 24 h after LPS
How it was run: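 RAW 264.7 macrophages (2×10^5 cells/well) were pretreated with compound for 1 h and then stimulated with 100 ng/μL LPS for 24 h. NO was measured as nitrite in the medium by the Griess reaction. Viability was checked in parallel by MTT.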

[7] = tested on: U-87MG brain cancer cell line; test: MTT cell viability assay, U-87MG; assay type: cell-based; settings: Homo sapiens, 24 h
Description: as §1, §2

[8] = tested on: RAW264.7 (normal macrophage); test: MTT cell viability assay, RAW264.7 macrophages; assay type: cell-based, mouse; settings: Mus musculus, RAW264.7, 24 h
How it was run: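 RAW264.7 macrophages (2×10^5 cells/well) pretreated with compounds 1 h, then incubated 24 h with or without 100 ng/μL LPS. Viability by MTT colorimetric assay run in parallel with Griess nitrite measurement.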

[9] = tested on: KATO III stomach cancer cell line; test: MTT cell viability assay, KATO III; assay type: cell-based; settings: Homo sapiens, 24 h
Description: as §1, §2

[10] = tested on: SK-N-MC neuroepithelioma line; test: MTT cell viability assay, SK-N-MC; assay type: cell-based; settings: Homo sapiens, 24 h
Description: as §1, §2

[11] = tested on: HCT-116 colon cancer cell line; test: MTT cell viability assay, HCT-116; assay type: cell-based; settings: Homo sapiens, 24 h
Description: as §1, §2

[12] = tested on: MeWo (No NRAS or BRAF mutation); test: MTT cell viability assay, MeWo melanoma; assay type: cell-based, human; settings: Homo sapiens, MeWo, 24 h
How it was run: as §3

[13] = tested on: U937 lymphoma line; test: MTT cell viability assay, U937; assay type: cell-based; settings: Homo sapiens, U-937, 24 h
Description: as §1, §2

[14] = tested on: TS/A (ER+, Her2−) murine mammary cancer cells; test: MTT cell viability assay, TS/A cells; assay type: cell-based; settings: Mus musculus
How it was run: as §4

[15] = tested on: NES-SA uterus cancer cell line; test: MTT cell viability assay, NES-SA; assay type: cell-based; settings: 24 h
Description: as §1, §2

[16] = tested on: HTB-68 (NRAS mutation); test: MTT cell viability assay, HTB-68 melanoma; assay type: cell-based, human; settings: Homo sapiens, 24 h
How it was run: as §3

[17] = tested on: melanoma cell lines B16-F10, MeWo, A375, A2058, HTB-68; test: MTT cell viability assay, all melanoma cell lines; assay type: cell-based; settings: 24 h, read-out: IC50 values over all types of melanoma cell lines
Description: as §1
Several genes are involved in melanoma development and pathology; specifically, mutation in V-raf murine sarcoma viral oncogene homolog B1 (B-RAF) occurs approximately 50-60% and in neuroblastoma RAS viral oncogene homolog (N-RAS) occurs about 30% of malignant melanomas. A spectrum of wild-type or mutated melanoma cell lines including B16-F10, MeWo, A375, A2058, HTB-68, and melanocyte were used to study anti-melanoma cell proliferation activity of parental phytocompound DET and newly synthesized DETDs.

[18] = tested on: A2058 (BRAF mutation); test: MTT cell viability assay, A2058 melanoma; assay type: cell-based, human; settings: Homo sapiens, A2058, 24 h
How it was run: as §3

[19] = tested on: A375 (BRAF mutation); test: MTT cell viability assay, A375 melanoma; assay type: cell-based, human; settings: Homo sapiens, A-375, 24 h, 24 h, MTT; read-out: IC50 on cell viability, A375 (BRAF mutation)
How it was run: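 A375 cells were seeded at 2×10^3 to 1×10^4 per well overnight and then exposed to compounds for 24 h to 72 h. Viability was measured by MTT absorbance at OD570 relative to 0.5% DMSO vehicle (100%), and IC50 was derived from it. Combination with PLX4032 was scored by combination index.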

[20] = tested on: M10 normal mammary epithelial cells; test: MTT cell viability assay, M10 normal cells; assay type: cell-based, human; settings: 24 h
How it was run: as §4

[21] = tested on: PC6 lung cancer cell line; test: MTT cell viability assay, PC6; assay type: cell-based; settings: 24 h
Description: as §1, §2

[22] = tested on: MDA-MB-231 (ER−, PR−, Her2−) human breast cancer cells; test: MTT cell viability assay, MDA-MB-231 cells; assay type: cell-based; settings: Homo sapiens
How it was run: as §4

[23] = tested on: PC3 (Prostate); test: MTT cell viability assay, PC3; assay type: cell-based; settings: 24 h
Description: as §1, §2

Structure (SMILES): CCCCS(=N)(=O)CCC(N)C(=O)O (stereo not shown) [BSO, buthionine sulfoximine]
- cytotoxicity of blocker alone [1]: did not show any cytotoxicity

- IC50 [2]: 1.11 µM
- IC50 ([3]; 24 h, read-out: IC50 on cell viability, B16-F10 (NRAS mutation)): 3.9 µM
- IC50 ([3]; Table 5, 24 h, read-out: IC50 viability B16-F10 (mouse) (Skin)): 3.9 µM
- IC50 ([4]; MCF7, 24 h, read-out: IC50 on cell viability, MCF-7 (ER+, Her2−)): 1.6 µM
- IC50 ([4]; MCF7, Table 5, 24 h, read-out: IC50 viability MCF-7 (Breast)): 4.8 µM
- IC50 [6]: 2.5 µM
- IC50 [7]: 0.35 µM
- IC50 [9]: 0.42 µM
- IC50 [10]: 0.32 µM
- IC50 [11]: 0.11 µM
- IC50 [12]: 9.9 µM
- IC50 [13]: 0.18 µM
- IC50 ([14]; 24 h, read-out: IC50 on cell viability, TS/A (ER+, Her2−)): 1.6 µM
- IC50 ([14]; Table 5, 24 h, read-out: IC50 viability TS/A (mouse) (Breast)): 1.8 µM
- IC50 [15]: 0.42 µM
- IC50 [16]: 5.7 µM
- IC50 [17]: 1.6 to 9.9 µM
- IC50 [18]: 3.9 µM
- IC50 [19]: 3.3 µM
- IC50 [21]: 0.17 µM
- IC50 ([22]; MDA-MB-231, 24 h, read-out: IC50 on cell viability, MDA-MB-231 (ER−, PR−, Her2−)): 4.2 µM
- IC50 ([22]; MDA-MB-231, Table 5, 24 h, read-out: IC50 viability MDA-MB-231 (Breast)): 4 µM
- IC50 [23]: 4.5 µM
Structure (SMILES): C=C1C(=O)O[C@H]2CC3=C[C@@H](C/C(C)=C/[C@@H](OC(=O)/C=C/c4ccccc4)[C@H]12)OC3=O [DETD-6]
- IC50 [5]: > 10 µM
- IC50 [8]: > 10 µM
- IC50 on cell viability, M10 (normal) [20]: some toxicity
- IC50 ([20]; Homo sapiens, Epithelial cell): 4.9 µM
